Data set [1] addresses Burkholderia cepacia KS1 glucose dehydrogenase (α-subunit SEQ ID NO:3), variant QYY, 326Gln+365Tyr+472Tyr (Burkholderia cepacia, UniProt Q8GQE7, A472Y/S326Q/S365Y). Format: biochemical. To be noted: pH 7.
Data set [2] deals with Burkholderia cepacia KS1 glucose dehydrogenase (α-subunit SEQ ID NO:3), variant QYR, 326Gln+365Tyr+472Arg (Burkholderia cepacia, UniProt Q8GQE7, A472R/S326Q/S365Y). Format: biochemical. As to conditions: pH 7.
Data set [3] addresses Ralstonia pickettii 12D FAD dependent oxidoreductase (SEQ ID NO:9), variant QYY, S327Q/S366Y/A473Y (Ralstonia pickettii, UniProt A0ABM9ITV6, A473Y/S327Q/S366Y). Format: biochemical.
Data set [4] deals with Burkholderia thailandensis TXDOH hypothetical protein BthaT_07876 (SEQ ID NO:8), variant QYY, S324Q/S363Y/A470Y (Burkholderia thailandensis, UniProt Q2T5D8, A470Y/S324Q/S363Y).
For data set [5], the target named is Ralstonia solanacearum IPO1609 transmembrane dehydrogenase, wild type, SEQ ID NO:10 (Ralstonia solanacearum, UniProt A0ABF7REW7).
The target in data set [6] is Burkholderia cepacia KS1 glucose dehydrogenase (α-subunit SEQ ID NO:3), variant QYA (QY), 326Gln+365Tyr (Burkholderia cepacia, UniProt Q8GQE7, S326Q/S365Y). Format: biochemical. As to conditions: pH 7.
Data set [7] concerns the target Ralstonia pickettii 12D FAD dependent oxidoreductase, wild type, SEQ ID NO:9 (Ralstonia pickettii, UniProt A0ABM9ITV6).
Data set [8] concerns the target Burkholderia cenocepacia J2315 putative oxidoreductase (SEQ ID NO:7), variant QYY, S326Q/S365Y/A472Y (Burkholderia cenocepacia, UniProt B4ELB3, A472Y/S326Q/S365Y). Format: biochemical. As to conditions: read-out: Km (Mal).
For data set [9], the system named is OC[C@H]1OC(O)[C@H](O)[C@@H](O)[C@@H]1O. The data set is described as follows: cells, lysate or membranes named.
In data set [10] the test system is OC[C@H]1O[C@H](O[C@H]2[C@H](O)[C@@H](O)C(O)O[C@@H]2CO)[C@H](O)[C@@H](O)[C@@H]1O. The data set is described as follows: cells, lysate or membranes named. As to conditions: pH 7.0.

Consider `OC[C@H]1OC(O)[C@H](O)[C@@H](O)[C@@H]1O` (some centres unmarked) [Glucose, glucose], for which the “Vmax (Glc.)” value in data set [1] is given as “Vmax (Glc.) = 131.6 U/mg protein”; in data set [2], “Vmax (Glc.) = 93.5 U/mg protein”; in [6], “Vmax (Glc.) = 149.3 U/mg protein”. Moreover, the “Vmax (Glc)” value was found to be 1.62 U/mL in data set [3], 48.8 U/mL in [4] and 0.14 U/mL in [5].
Turning to `OC[C@H]1O[C@H](O[C@H]2[C@H](O)[C@@H](O)C(O)O[C@@H]2CO)[C@H](O)[C@@H](O)[C@@H]1O` (some centres unmarked) [Mal, maltose], the “Vmax (Mal)” value in data set [7] is 0.94 U/mL; in data set [5] it was 0.14 U/mL. The Km in data set [8] was > 100000 µM.
Take (Burkholderia cenocepacia J2315): the Km in data set [9] (pH 7.0) was found to be 110 µM; in data set [10], 1300 µM. Moreover, the Vmax in data set [9] (pH 7.0) turned out to be 2.05 U/mL; in data set [10], 1.87 U/mL.
As to (Burkholderia cepacia), in data set [9] (pH 7.5), the Km turned out to be 1350 µM and the Vmax came to 100 µmol/min/mg.
For (Ralstonia pickettii), the Km in data set [10] was 2020 µM.
On the same count and under the same terms, the value for (Ralstonia solanacearum IPO1609) was 2640 µM.

The values are drawn from patent publication US20120107903A1 (priority 2010, published 2012).
